Marks after values point to notes of the source that are not given here.
Tests used:
Format in all cases: in vivo, human
[1] = Fluid balance, T2DM subjects; details: mean (SD)
Protocol: (§1) Urine samples were collected at pre-dose, and over a series of intervals (0–2, 2–4, 4–6, 6–8, 8–12 and 12–24 h post-dose) for the analysis of creatinine, glucose and electrolytes (Na, K and Cl). All fluid intake was recorded, as well as urine volume, over the 24 hours before and after dosing in each treatment period. Urine was tested for protein on the first morning void of day -1 and 24 h after dosing.

[2] = Adverse events after single oral doses, healthy subjects (Part A); details: for Blood creatine phosphokinase increased (adverse events reported by >1 subject in total) / Diarrhea (drug-related adverse events) / Dizziness (drug-related adverse events) / Headache (adverse events reported by >1 subject in total) / Headache (drug-related adverse events) / Hot flush (drug-related adverse events) / At least one adverse event: healthy subjects; for At least one adverse event: n = 8
Protocol: (§2) This double-blind, randomized, placebo-controlled, single escalating-dose crossover study was conducted in two parts: Part A consisted of a randomized, dose-escalation in healthy subjects; Part B was of similar design, but conducted in subjects with T2DM and included an evaluation of pharmacodynamics using a 50 g oral glucose tolerance test (OGTT).
Ten healthy subjects were evaluated in 5 study sessions, each separated by approximately 2 weeks. At each study session, subjects received either an oral dose of remogliflozin etabonate or placebo after an overnight fast. Remogliflozin etabonate doses were 20 mg, 50 mg, 150 mg, 500 mg and 1000 mg. Over the course of participation in the study, each subject received 4 of the 5 active remogliflozin etabonate doses and 1 dose of placebo (4:1 active to placebo ratio per treatment period). The available safety and PK results from each dosing period were evaluated before proceeding to the next dose level.
(§3) All subjects were admitted to the unit two nights prior to receiving study drug to establish baseline safety parameters and fluid intake levels over a 36 h period. Subjects remained in the unit for at least 24 h after doses were administered for monitoring of clinical laboratory parameters exploratory biomarkers, vital signs, ECGs and adverse events. While confined to the clinical research unit, all subjects received meals standardized with respect to calories, fat, protein, carbohydrate, and sodium content; however, detailed dietary information was not captured in this study. In Part A, subjects were dosed following an overnight fast; lunch and dinner were provided at 4 and 10 h after dosing, respectively. Fifteen minutes after dosing in each treatment period in Part B, a fasting OGTT was performed using 50 g glucose (administered as 50 g Glucola™). A 50 g glucose load was chosen since the OGTT was being performed in subjects already known to have diabetes. The glucose drink was consumed by subjects within approximately 5 minutes. Blood samples for the measurement of glucose, insulin, and intact glucagon-like peptide 1 (GLP-1) were collected for 24 hours following dose administration. Provided that there were no safety or tolerability concerns, subjects were released from the clinic on day 2 of each treatment period until their return for the next treatment or follow-up period. Each subject was involved in the study for approximately 8 weeks (from screening to follow-up).

[3] = Adverse events after single oral doses, T2DM subjects (Part B); details: for At least one adverse event: n = 6
Protocol: as §2
Six subjects with T2DM received two doses of remogliflozin etabonate and a placebo dose, in a randomized, dose escalating, crossover design, along with an oral glucose load on three study sessions separated by 7–14 days. Full PK and safety profiles were measured on Day 1 of each dosing period. The doses selected for this portion of the study, 50 mg and 500 mg, were based on data obtained in Part A. In each dosing period, subjects were assigned to active vs placebo in a 2:1 ratio.
as §3

[4] = 24-h urine electrolyte excretion, T2DM subjects; details: mean (SD)
Protocol: as §1

[5] = Plasma glucose, insulin and intact GLP-1 after 50 g OGTT, T2DM subjects; details: for median baseline adjusted AUC(0–4) for plasma GLP-1 following an OGTT: placebo 6.36
Protocol: as §3
Blood samples for glucose were taken at 0 (pre-dose), and 1, 2, 4, 8 and 12 h after dosing in each treatment period (Part A). For Part B, blood samples for glucose, insulin and GLP-1 were taken at check-in on day -2, and at 0 h (pre-dose), and 0.5, 1, 1.5, 2, 4 h (prior to lunch), 4.5, 5, 6, 8, 10, 12 and 24 h after dosing on day 1 of each treatment period.
For glucose, plasma was analyzed using a YSI 2300 Glucose Analyzer (Yellow Springs International Life Sciences, Yellow Springs, OH, USA). For insulin, plasma was rapidly prepared and frozen at -70°C until analyzed by LabCorp (San Diego, CA, USA) using a chemiluminescent immunometric assay method (Siemen’s Immulite 2000 analyzer with Immulite Insulin Kit L2KIN2).
For assay of intact GLP-1, blood was collected into a chilled EDTA tube and protease inhibitors (DPP4 inhibitor obtained from EMD Millipore, St. Charles, MO) were immediately added. Samples were then spun down and plasma split into two separate tubes and frozen at -70°C until analyzed by Pathway Diagnostics (Malibu, CA, USA) by ELISA (kit # EGLP-35 K, EMD Millipore). The lowest level of intact GLP-1 this assay can detect is 2 pM (with a minimum plasma sample size of 0.4 mL).

CCOC(=O)OC[C@H]1O[C@@H](Oc2nn(C(C)C)c(C)c2Cc2ccc(OC(C)C)cc2)[C@H](O)[C@@H](O)[C@@H]1O [Remogliflozin etabonate, remogliflozin etabonate]
Fluid balance (total fluid intake minus total urine volume) ([1]; 0–12 h post-dose, 50 mg): -78(433) mL | Fluid balance (total fluid intake minus total urine volume) ([1]; 0–12 h post-dose, 500 mg): -29 (749) mL | Fluid balance (total fluid intake minus total urine volume) ([1]; 12–24 h post-dose, 50 mg): -803 (658) mL | Fluid balance (total fluid intake minus total urine volume) ([1]; 12–24 h post-dose, 500 mg): -1088(679) mL | Fluid balance (total fluid intake minus total urine volume) ([1]; -24 h to pre-dose (baseline before dosing), 50 mg period): -504 (294) mL | Fluid balance (total fluid intake minus total urine volume) ([1]; -24 h to pre-dose (baseline before dosing), 500 mg period): 188 (1879) mL | Fluid balance (total fluid intake minus total urine volume) ([1]; -24 h to pre-dose (baseline before dosing), 500 mg period, listed as remogliflozin etabonate): +188 mL | Tolerability ([2]; all subjects, single oral doses 20-1000 mg, no deaths, serious adverse events or withdrawals): generally well-tolerated | Blood creatine phosphokinase increased (adverse events reported by >1 subject in total) ([2]; 20 mg single oral dose): 0 n (%) | Diarrhea (drug-related adverse events) ([2]; 20 mg single oral dose): 1 (13) n (%) | Dizziness (drug-related adverse events) ([2]; 20 mg single oral dose): 0 n (%) | Headache (adverse events reported by >1 subject in total) ([2]; 20 mg single oral dose): 1 (13) n (%) | Headache (drug-related adverse events) ([2]; 20 mg single oral dose): 1 (13) n (%) | Hot flush (drug-related adverse events) ([2]; 20 mg single oral dose): 0 n (%) | At least one adverse event ([2]; 20 mg single oral dose): 2 (25) n (%) | Blood creatine phosphokinase increased (adverse events reported by >1 subject in total) ([2]; 50 mg single oral dose): 0 n (%) | Diarrhea (drug-related adverse events) ([2]; 50 mg single oral dose): 0 n (%) | Dizziness (drug-related adverse events) ([2]; 50 mg single oral dose): 0 n (%) | Headache (adverse events reported by >1 subject in total) ([2]; 50 mg single oral dose): 1 (13) n (%) | Headache (drug-related adverse events) ([2]; 50 mg single oral dose): 1 (13) n (%) | Hot flush (drug-related adverse events) ([2]; 50 mg single oral dose): 0 n (%) | At least one adverse event ([2]; 50 mg single oral dose): 3 (38) n (%) | Blood creatine phosphokinase increased (adverse events reported by >1 subject in total) ([2]; 150 mg single oral dose): 0 n (%) | Diarrhea (drug-related adverse events) ([2]; 150 mg single oral dose): 0 n (%) | Dizziness (drug-related adverse events) ([2]; 150 mg single oral dose): 0 n (%) | Headache (adverse events reported by >1 subject in total) ([2]; 150 mg single oral dose): 0 n (%) | Headache (drug-related adverse events) ([2]; 150 mg single oral dose): 0 n (%) | Hot flush (drug-related adverse events) ([2]; 150 mg single oral dose): 0 n (%) | At least one adverse event ([2]; 150 mg single oral dose): 1 (13) n (%) | Blood creatine phosphokinase increased (adverse events reported by >1 subject in total) ([2]; 500 mg single oral dose): 1 (13) n (%) | Diarrhea (drug-related adverse events) ([2]; 500 mg single oral dose): 0 n (%) | Dizziness (drug-related adverse events) ([2]; 500 mg single oral dose): 0 n (%) | Headache (adverse events reported by >1 subject in total) ([2]; 500 mg single oral dose): 2 (25) n (%) | Headache (drug-related adverse events) ([2]; 500 mg single oral dose): 0 n (%) | Hot flush (drug-related adverse events) ([2]; 500 mg single oral dose): 0 n (%) | At least one adverse event ([2]; 500 mg single oral dose): 3 (38) n (%) | Blood creatine phosphokinase increased (adverse events reported by >1 subject in total) ([2]; 1000 mg single oral dose): 0 n (%) | Diarrhea (drug-related adverse events) ([2]; 1000 mg single oral dose): 0 n (%) | Dizziness (drug-related adverse events) ([2]; 1000 mg single oral dose): 1 (13) n (%) | Headache (adverse events reported by >1 subject in total) ([2]; 1000 mg single oral dose): 1 (13) n (%) | Headache (drug-related adverse events) ([2]; 1000 mg single oral dose): 1 (13) n (%) | Hot flush (drug-related adverse events) ([2]; 1000 mg single oral dose): 1 (13) n (%) | At least one adverse event ([2]; 1000 mg single oral dose): 1 (13) n (%) | Muscle cramp (adverse events reported by >1 subject in total) ([3]; 50 mg single oral dose): 1 (17) n (%) | Nausea (drug-related adverse events) ([3]; 50 mg single oral dose): 0 n (%) | Pain in extremity (drug-related adverse events) ([3]; 50 mg single oral dose): 0 n (%) | β2-microglobulin increased (adverse events reported by >1 subject in total) ([3]; 50 mg single oral dose): 0 n (%) | β2-microglobulin increased (drug-related adverse events) ([3]; 50 mg single oral dose): 0 n (%) | At least one adverse event ([3]; 50 mg single oral dose): 1 (17) n (%) | Muscle cramp (adverse events reported by >1 subject in total) ([3]; 500 mg single oral dose): 0 n (%) | Nausea (drug-related adverse events) ([3]; 500 mg single oral dose): 1 (17) n (%) | Pain in extremity (drug-related adverse events) ([3]; 500 mg single oral dose): 1 (17) n (%) | β2-microglobulin increased (adverse events reported by >1 subject in total) ([3]; 500 mg single oral dose): 2 (33) n (%) | β2-microglobulin increased (drug-related adverse events) ([3]; 500 mg single oral dose): 1 (17) n (%) | At least one adverse event ([3]; 500 mg single oral dose): 2 (33) n (%) | Urinary chloride excretion ([4]; 50 mg single dose, n = 5): 168 (23.9)^c mmol | Urinary potassium excretion ([4]; 50 mg single dose, n = 5): 65.8 (4.5)^c mmol | Urinary sodium excretion ([4]; 50 mg single dose, n = 5): 173 (35.5)^c mmol | Urinary chloride excretion ([4]; 500 mg single dose): 287 (147) mmol | Urinary potassium excretion ([4]; 500 mg single dose): 108 (65.8) mmol | Urinary sodium excretion ([4]; 500 mg single dose): 301 (128) mmol | Increases in plasma glucose following an OGTT ([5]; 50 mg RE vs placebo, altered little from 50 mg to 500 mg): clearly attenuated | median baseline adjusted AUC(0–4) for plasma GLP-1 following an OGTT ([5]; 50 mg): -8.85 pM·h | median baseline adjusted AUC(0–4) for plasma GLP-1 following an OGTT ([5]; 500 mg): -1.95 pM·h | Plasma insulin following the glucose load ([5]; 50 and 500 mg): no clear trends
